From PubChem BioAssay (NCI)
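Cells were grown in 96-well plates and exposed to each compound for 48 hours at five concentrations; endpoints were interpolated linearly between bracketing concentrations, or set to the highest concentration if not reached. TGI is the concentration that stops growth completely.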

Assays:
Assay in all cases: NCI anticancer screen, dose series, 48 h
SNB-19 CNS = system: SNB-19 CNS
SR leukemia = system: SR leukemia
SNB-75 CNS = system: SNB-75 CNS
NCI-H23 lung = system: NCI-H23 lung
COLO 205 colon = system: COLO 205 colon
NCI-H460 lung = system: NCI-H460 lung
LOX IMVI melanoma = system: LOX IMVI melanoma
IGROV1 ovarian = system: IGROV1 ovarian
M14 melanoma = system: M14 melanoma
SK-MEL-5 melanoma = system: SK-MEL-5 melanoma
HCT-15 colon = system: HCT-15 colon
K-562 leukemia = system: K-562 leukemia
OVCAR-8 ovarian = system: OVCAR-8 ovarian
HOP-92 NSCLC = system: HOP-92 NSCLC
UACC-257 melanoma = system: UACC-257 melanoma
786-0 renal = system: 786-0 renal
M19-MEL melanoma = system: M19-MEL melanoma
OVCAR-5 ovarian = system: OVCAR-5 ovarian
A498 renal = system: A498 renal
HOP-18 NSCLC = system: HOP-18 NSCLC
A549 NSCLC = system: A549 NSCLC
EKVX NSCLC = system: EKVX NSCLC
HL-60(TB) leukemia = system: HL-60(TB) leukemia
KM12 colon = system: KM12 colon
SF-539 CNS = system: SF-539 CNS
SK-MEL-28 melanoma = system: SK-MEL-28 melanoma
RXF 393 renal = system: RXF 393 renal
DLD-1 colon = system: DLD-1 colon
SN12C renal = system: SN12C renal
SF-295 CNS = system: SF-295 CNS
HOP-62 NSCLC = system: HOP-62 NSCLC
MOLT-4 leukemia = system: MOLT-4 leukemia
SF-268 CNS = system: SF-268 CNS
LXFL 529 NSCLC = system: LXFL 529 NSCLC
SW-620 colon = system: SW-620 colon
U251 CNS = system: U251 CNS
OVCAR-4 ovarian = system: OVCAR-4 ovarian
NCI-H226 lung = system: NCI-H226 lung
NCI-H522 lung = system: NCI-H522 lung
KM20L2 colon = system: KM20L2 colon
CCRF-CEM leukemia = system: CCRF-CEM leukemia
HCT-116 colon = system: HCT-116 colon
RPMI-8226 leukemia = system: RPMI-8226 leukemia
HT29 colon = system: HT29 colon
DMS 273 small cell lung = system: DMS 273 small cell lung
ACHN renal = system: ACHN renal
UACC-62 melanoma = system: UACC-62 melanoma
DMS 114 small cell lung = system: DMS 114 small cell lung
SNB-78 CNS = system: SNB-78 CNS
SK-OV-3 ovarian = system: SK-OV-3 ovarian
UO-31 renal = system: UO-31 renal
MALME-3M melanoma = system: MALME-3M melanoma
CAKI-1 renal = system: CAKI-1 renal
XF 498 CNS = system: XF 498 CNS
TK-10 renal = system: TK-10 renal
SK-MEL-2 melanoma = system: SK-MEL-2 melanoma
OVCAR-3 ovarian = system: OVCAR-3 ovarian

CC1=N/C(=C\c2ccc(N)cc2)C(=O)N1Nc1nnc(NN2C(=O)/C(=C/c3ccc(N)cc3)N=C2C)c2ccccc12
TGI (SNB-19 CNS): > 100 µM | TGI (SR leukemia): > 100 µM | TGI (SNB-75 CNS): > 100 µM | TGI (NCI-H23 lung): > 100 µM | TGI (COLO 205 colon): > 100 µM | TGI (NCI-H460 lung): > 100 µM | TGI (LOX IMVI melanoma): > 100 µM | TGI (IGROV1 ovarian): > 100 µM | TGI (M14 melanoma): > 100 µM | TGI (SK-MEL-5 melanoma): > 100 µM | TGI (HCT-15 colon): > 100 µM | TGI (K-562 leukemia): > 100 µM | TGI (OVCAR-8 ovarian): > 100 µM | TGI (HOP-92 NSCLC): > 100 µM | TGI (UACC-257 melanoma): > 100 µM | TGI (786-0 renal): > 100 µM | TGI (M19-MEL melanoma): > 100 µM | TGI (OVCAR-5 ovarian): > 100 µM | TGI (A498 renal): > 100 µM | TGI (HOP-18 NSCLC): > 100 µM | TGI (A549 NSCLC): > 100 µM | TGI (EKVX NSCLC): > 100 µM | TGI (HL-60(TB) leukemia): 56.1 µM | TGI (KM12 colon): 81.5 µM | TGI (SF-539 CNS): > 100 µM | TGI (SK-MEL-28 melanoma): > 100 µM | TGI (RXF 393 renal): > 100 µM | TGI (DLD-1 colon): > 100 µM | TGI (SN12C renal): > 100 µM | TGI (SF-295 CNS): 69.3 µM | TGI (HOP-62 NSCLC): 64.3 µM | TGI (MOLT-4 leukemia): > 100 µM | TGI (SF-268 CNS): > 100 µM | TGI (LXFL 529 NSCLC): > 100 µM | TGI (SW-620 colon): > 100 µM | TGI (U251 CNS): > 100 µM | TGI (OVCAR-4 ovarian): > 100 µM | TGI (NCI-H226 lung): 56.5 µM | TGI (NCI-H522 lung): 41.7 µM | TGI (KM20L2 colon): > 100 µM | TGI (CCRF-CEM leukemia): > 100 µM | TGI (HCT-116 colon): > 100 µM | TGI (RPMI-8226 leukemia): > 100 µM | TGI (HT29 colon): > 100 µM | TGI (DMS 273 small cell lung): > 100 µM | TGI (ACHN renal): > 100 µM | TGI (UACC-62 melanoma): > 100 µM

CC1OC(n2ccc3ccc([N+](=O)[O-])cc32)C(O)C(O)C1O (stereo not drawn)
TGI (DMS 114 small cell lung): > 100 µM | TGI (SNB-19 CNS): > 100 µM | TGI (SR leukemia): > 100 µM | TGI (SNB-75 CNS): > 100 µM | TGI (NCI-H23 lung): > 100 µM | TGI (COLO 205 colon): > 100 µM | TGI (NCI-H460 lung): > 100 µM | TGI (LOX IMVI melanoma): > 100 µM | TGI (IGROV1 ovarian): > 100 µM | TGI (M14 melanoma): > 100 µM | TGI (SK-MEL-5 melanoma): > 100 µM | TGI (HCT-15 colon): > 100 µM | TGI (K-562 leukemia): > 100 µM | TGI (OVCAR-8 ovarian): > 100 µM | TGI (HOP-92 NSCLC): > 100 µM | TGI (UACC-257 melanoma): > 100 µM | TGI (786-0 renal): > 100 µM | TGI (M19-MEL melanoma): > 100 µM | TGI (OVCAR-5 ovarian): > 100 µM | TGI (A498 renal): > 100 µM | TGI (A549 NSCLC): > 100 µM | TGI (SNB-78 CNS): > 100 µM | TGI (EKVX NSCLC): > 100 µM | TGI (HL-60(TB) leukemia): > 100 µM | TGI (SK-OV-3 ovarian): > 100 µM | TGI (UO-31 renal): > 100 µM | TGI (MALME-3M melanoma): > 100 µM | TGI (KM12 colon): > 100 µM | TGI (CAKI-1 renal): > 100 µM | TGI (SF-539 CNS): > 100 µM | TGI (XF 498 CNS): > 100 µM | TGI (SK-MEL-28 melanoma): > 100 µM | TGI (TK-10 renal): > 100 µM | TGI (RXF 393 renal): > 100 µM | TGI (DLD-1 colon): > 100 µM | TGI (SN12C renal): > 100 µM | TGI (SF-295 CNS): > 100 µM | TGI (HOP-62 NSCLC): > 100 µM | TGI (MOLT-4 leukemia): > 100 µM | TGI (SF-268 CNS): > 100 µM | TGI (LXFL 529 NSCLC): > 100 µM | TGI (SW-620 colon): > 100 µM | TGI (U251 CNS): > 100 µM | TGI (OVCAR-4 ovarian): > 100 µM | TGI (NCI-H226 lung): > 100 µM | TGI (NCI-H522 lung): > 100 µM | TGI (KM20L2 colon): > 100 µM | TGI (CCRF-CEM leukemia): > 100 µM | TGI (HCT-116 colon): > 100 µM | TGI (SK-MEL-2 melanoma): > 100 µM | TGI (RPMI-8226 leukemia): > 100 µM | TGI (HT29 colon): > 100 µM | TGI (DMS 273 small cell lung): > 100 µM | TGI (OVCAR-3 ovarian): > 100 µM | TGI (ACHN renal): > 100 µM | TGI (UACC-62 melanoma): > 100 µM
